The values below come from ChEMBL document CHEMBL1165891, “Synthesis and evaluation of novel chromone analogs for their inhibitory activity against interleukin-5” (Eur J Med Chem, 2010).

The nature of assay [1]: Antiinflammatory activity against mouse Y16 cells assessed as inhibition of IL5 production at 30 uM. It is filed as functional.
Assay [2] in a line: Antiinflammatory activity against mouse Y16 cells assessed as inhibition of IL5 production. It is filed as functional, cell-based.
The nature of assay [3]: Antiinflammatory activity against mouse Y16 cells assessed as inhibition of IL5 production at 50 uM. It is filed as functional.

The term inhibition denotes the share of the control response that was lost under treatment. In general, IC50 refers to the concentration that inhibits the measured activity by half. On to `O=c1c(Cc2ccccc2)coc2cccc(OCC3CCCCC3)c12`, for which the inhibition at 30 µM in assay [1] stood at 56%. Moreover, the IC50 in assay [2] was 22.9 µM.
For `O=c1c(Cc2ccc(O)cc2)coc2cccc(OCC3CCCCC3)c12`, the inhibition at 30 µM in assay [1] worked out at 98%. Moreover, in assay [2], the IC50 is under 3 µM.
For `O=c1c(CO)coc2cccc(OCC3CCCCC3)c12`, in that order: 84% and 7.6 µM.
The like results for `CC(C)COc1cccc2occ(CO)c(=O)c12` were, in that order, 56% and 21.6 µM.
For `CCc1ccc(Cc2coc3cccc(OCC4CCCCC4)c3c2=O)cc1`, in that order: 45% and over 30 µM.
As to `O=c1c(Cc2ccc(Cl)cc2)coc2cccc(OCC3CCCCC3)c12`, in assay [1], the inhibition at 30 µM was determined as 36%. Also, the IC50 in assay [2] is over 30 µM.
On to `O=c1c(Cc2ccc(C(F)(F)F)cc2)coc2cccc(OCC3CCCCC3)c12`, for which the inhibition at 30 µM in assay [1] was determined as 47%. The IC50 in assay [2] was over 30 µM.
The like results for `Cc1ccc(Cc2coc3cccc(OCCC(C)C)c3c2=O)cc1` were, in that order, 35% and over 30 µM.
The like results for `O=C(O)c1coc2cccc(OCC3CCCCC3)c2c1=O` were, in that order, 43% and over 30 µM.
For `CC(C)COc1cccc2occ(CCC(=O)O)c(=O)c12`, in that order: under 10% and over 30 µM.
As to `O=c1c(/C=N/O)coc2cccc(OCC3CCCCC3)c12`, the inhibition at 30 µM in assay [1] is under 10%. Also, in assay [2], the IC50 is over 30 µM.
For `O=c1c(CCl)coc2cccc(OCC3CCCCC3)c12`, in that order: 45% and over 30 µM.
The like results for `CC(C)COc1cccc2occ(CCl)c(=O)c12` were, in that order, 43% and over 30 µM.
The like results for `NS(=O)(=O)c1ccc(Cc2coc3cccc(OCC4CCCCC4)c3c2=O)cc1` were, in that order, 31% and over 30 µM.
As to `O=C(O)c1ccc(Cc2coc3cccc(OCC4CCCCC4)c3c2=O)cc1`, the inhibition at 30 µM in assay [1] is 77%. For the same molecule, the IC50 in assay [2] was found to be 12.3 µM.
The like results for `Cc1ccc(Cc2coc3cccc(OCC4CCCCC4)c3c2=O)cc1` were, in that order, 86% and 14.8 µM.
The like results for `CC(C)COc1cccc2occ(C(=O)O)c(=O)c12` were, in that order, 33% and over 30 µM.
For `CC(C)COc1cccc2occ(Cc3ccc(C(=O)O)cc3)c(=O)c12`, in that order: 73% and 11.4 µM.
With `O=C(O)CCc1coc2cccc(OCC3CCCCC3)c2c1=O`, in assay [1], the inhibition at 30 µM was under 10%. Further, the IC50 in assay [2] is over 30 µM.
For `CC(C)COc1cccc2occ(/C=N/O)c(=O)c12`, in that order: under 10% and over 30 µM.
For `CC(C)CCOc1cccc2occ(Cc3ccc(O)cc3)c(=O)c12`, in that order: 36% and over 30 µM.
For `COc1cc(Cc2coc3cccc(OCC4CCCCC4)c3c2=O)cc(OC)c1OC`, in that order: 85% and 12.5 µM.
As to `O=c1c(-c2ccc(O[C@@H]3O[C@H](CO)[C@@H](O)[C@H](O)[C@H]3O)cc2)coc2cc(O)cc(O)c12` [SOPHORICOSIDE], in assay [3], the inhibition at 50 µM was determined as 93.8%. In addition, the IC50 in assay [2] amounted to 10.3 µM.
